Data reported in US20060167035A1, “Quinoline derivative, its use, production and pharmaceutical agents containing the latter” (priority 2004, published 2006).

Biological target: T1, recombinant EphB4 kinase (Homo sapiens, UniProt P54760)
T1 construct: purchased ProQinase GmbH, Freiburg, Germany
T1 sequence (P54760 16-987): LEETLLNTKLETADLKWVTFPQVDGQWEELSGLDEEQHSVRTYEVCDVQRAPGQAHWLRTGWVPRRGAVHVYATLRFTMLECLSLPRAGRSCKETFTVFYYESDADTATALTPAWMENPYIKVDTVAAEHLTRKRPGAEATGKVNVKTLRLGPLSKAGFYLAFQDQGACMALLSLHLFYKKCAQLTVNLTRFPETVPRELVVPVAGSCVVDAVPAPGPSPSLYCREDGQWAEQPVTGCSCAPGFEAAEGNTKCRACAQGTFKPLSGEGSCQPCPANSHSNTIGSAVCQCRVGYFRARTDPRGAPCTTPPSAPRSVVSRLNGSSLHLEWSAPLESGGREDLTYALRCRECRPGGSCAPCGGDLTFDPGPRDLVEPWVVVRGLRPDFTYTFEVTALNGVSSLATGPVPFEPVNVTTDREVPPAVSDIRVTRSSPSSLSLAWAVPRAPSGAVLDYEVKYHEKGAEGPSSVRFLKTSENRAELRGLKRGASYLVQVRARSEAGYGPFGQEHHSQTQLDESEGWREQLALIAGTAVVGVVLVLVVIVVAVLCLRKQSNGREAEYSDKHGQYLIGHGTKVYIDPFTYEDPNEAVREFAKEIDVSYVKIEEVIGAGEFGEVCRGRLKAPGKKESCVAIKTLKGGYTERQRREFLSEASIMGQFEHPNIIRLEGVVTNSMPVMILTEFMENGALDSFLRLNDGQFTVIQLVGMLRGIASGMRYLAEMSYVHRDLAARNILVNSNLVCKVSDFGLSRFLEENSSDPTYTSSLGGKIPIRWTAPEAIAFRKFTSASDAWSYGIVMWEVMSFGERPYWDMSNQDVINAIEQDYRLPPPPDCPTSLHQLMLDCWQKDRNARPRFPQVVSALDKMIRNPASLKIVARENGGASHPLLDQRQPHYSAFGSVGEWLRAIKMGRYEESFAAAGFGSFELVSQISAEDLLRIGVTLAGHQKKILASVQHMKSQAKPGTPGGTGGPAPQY
Assay: Test System for EphB4 (HTRF kinase assay)
Format: biochemical
Conditions: polyGluAlaTyr substrate, 2 μM ATP, HTRF readout, read-out: IC50 of EphB4 kinase inhibition
Protocol: A mixture that consists of 20 ng/ml of recombinant EphB4 kinase (ProQinase GmbH, Freiburg, Germany), 2.67 μg/ml of polyGluAlaTyr, 2 μM of ATP, 25 mmol of HEPES (pH 7.3), 5 mmol of MgCl2, 1 mmol of MnCl2, 2 mmol of DTT, 0.1 mmol of NaVO4, 1% (v/v) of glycerol, 0.02% NP40, EDTA-free protease inhibitors (Complete Roche Company, 1 tablet in 50 ml) is incubated for 10 minutes at 20° C. Test substances are dissolved in 100% DMSO and introduced in a 0.017× volume before the reaction begins. 60 minutes after 1.7× volume of a solution of 50 mmol of Hepes, pH 7.0, 0.2% BSA, 0.14 μg/ml of PT66-Europium, 3.84 μg/ml of SA-XL665, 75 mmol of EDTA is added, the batch is measured in a Discovery HTRF measuring device of the PerkinElmer Company.

IC50 [µM]	Structure (SMILES)
0.27	Cc1nc2c(ccc3nccc(Nc4cc(O)ccc4C)c32)s1 [Example 2, 4-Methyl-3-(2-methyl-thiazolo[4,5-f]quinolin-9-ylamino)-phenol]

Same assay, conditions: polyGluAlaTyr substrate, 2 μM ATP, HTRF readout, read-out: IC50 of EphB4 kinase inhibition (upper bound)

Structure (SMILES)	IC50 [µM]
Cc1ccc(O)cc1Nc1ccnc2ccc3sccc3c12 [Example 1, 4-Methyl-3-(thieno[3,2-f]quinolin-9-ylamino)-phenol]	< 25
Cc1nc2c(ccc3nccc(Nc4cc(O)ccc4C)c32)s1 [Example 2, 4-Methyl-3-(2-methyl-thiazolo[4,5-f]quinolin-9-ylamino)-phenol]	< 25
Cc1ccc(O)cc1Nc1ccnc2ccc3ccsc3c12 [Example 3, 4-Methyl-3-(thieno[2,3-f]quinolin-9-ylamino)-phenol]	< 25

Continued, values first:

IC50 [µM]	Structure (SMILES)
< 25	Cc1ccc(O)cc1Nc1ccnc2ccc3c(c12)CCS3(=O)=O [Example 4, 3-(3,3-Dioxo-2,3-dihydro-1H-3λ^6-thieno[3,2-f]quinolin-9-ylamino)-4-methyl-phenol]
< 25	O=S1(=O)CCc2c1ccc1nccc(Nc3cccc(O)c3)c21 [Example 5, 3-(3,3-Dioxo-2,3-dihydro-1H-3λ^6-thieno[3,2-f]quinolin-9-ylamino)-phenol]
< 25	Cc1ccc(Nc2ccnc3ccc4c(c23)CCS4(=O)=O)cc1O [Example 15, 5-(3,3-Dioxo-2,3-dihydro-1H-3λ^6-thieno[3,2-f]quinolin-9-ylamino)-2-methylphenol]
